Earlier results in patent US8664392B2, “Pyrazine derivatives for bioconjugation” (MediBeacon, LLC, priority 2004, dated 2014).

Conditions: absorb and emit in the blue to orange regions

Stokes shift: ~100 nm
SMILES: Nc1nc(C(=O)O)c(N)nc1C(=O)O [3,6-diamino-2,5-pyrazine-dicarboxylic acid]
